Results published in patent US6348445B1, “Biologically active peptides with reduced toxicity in animals and a method for preparing same” (priority 1992, dated 2002).
Where no end group is shown, it is not given here.

Legend:
[1] = tested on: P. aeruginosa strain ATCC 27853; format: cell-based; conditions: ATCC 27853
In short: (§1)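 Broth microdilution per NCCLS M7-T2: final peptide levels 0.25 to 256 μg/ml (twofold steps), inoculum 1-5×10^5 CFUs/ml in full-strength Mueller Hinton broth. MIC read as lowest concentration leaving the well clear after 16-20 hours at 37° C.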

[2] = tested on: E. coli ATCC strain 25922; assay: Minimal Inhibitory Concentration, microtiter broth dilution; format: cell-based; conditions: ATCC strain 25922
In short: as §1

[3] = MTD and LD50, single intravenous administration; format: in vivo, mice
Method: Determinations of a maximal tolerated dose (MTD) of a single intravenous (i.v.) administration or intraperitoneal (i.p.) administration of MSI-344 or MSI-1857 in 100 CD-1®BR mice were done. The MTD of a single intravenous (i.v.) administration was 10 mg/kg for MSI-344 and 60 mg/kg for MSI-1857. The MTD of a single intraperitoneal (i.p.) administration was less than 20 mg/kg for MSI-344 and between 50 and 100 mg/kg for MSI-1857.
To determine estimates of MTDs and LD50s of MSI-344 and MSI-1857 administered intravenously or intraperitoneally as a single bolus in mice.
A 5 mg/mL solution of MSI-344 was made in saline (0.9% sodium chloride injection USP, Abbott, North Chicago, Ill.) corrected for peptide content. Solutions of MSI-344 at concentrations of 4, 3, 2, 1.5, 1, and 0.5 mg/mL were made by diluting the 5 mg/mL solution using saline as diluent. (Errors were made in solution preparation of the 4, 3, and 2 mg/mL solutions and results from groups with animals doses with these solutions, i.e. groups 12, 13, and 14, were eliminated from study analysis). A 20 mg/mL solution of MSI-1857 was made in saline. Solutions of MSI-1857 at concentrations of 15, 10, 8, 6, and 5 mg/mL were made by diluting the 20 mg/mL solution using saline as diluent.
Another 5 mg/mL solution of MSI-344 was made in saline corrected for peptide content. Solutions of 4, 3 and 2 mg/mL were made by diluting the 5 mg/mL solution using saline as diluent. A 15 mg/mL solution of MSI-1857 in saline was made corrected for peptide content. A 10 mg/mL solution was made by diluting the 15 mg/mL solution with saline.
Mice (four mice per dose group) were intravenously or intraperitoneally administered a single bolus of MSI-344 or MSI-1857 using an injection volume of 10 mL/kg of the appropriate solution concentration. If the first two mice in a group died immediately (within 10 secs) after administration of a dose then no other mice injected with this dose of this compound (for ethical reasons). Survival was monitored daily for at least eight days post-administration. Study designs are presented in Tables IX and X. Toxicity Study # 262 was a supplement to Toxicity Study #261.

[4] = Tox Study #261 group 2, 20 mg/kg IV, 2 injected
[5] = Tox Study #261 group 3, 15 mg/kg IV, 2 injected
[6] = Tox Study #261 group 4, 10 mg/kg IV, 4 injected
[7] = Tox Study #261 group 5, 5 mg/kg IV, 4 injected

For GIGKFLKKAKKFGKAFVKILKK [MSI-344], the “MIC P. aeruginosa ATCC 27853” value [1] was 16 µg/mL, the “MIC E. coli ATCC 25922” value [2] was 8 µg/mL and the “No. of Survivors Day 1” value [3, 4] was 0. For the same sequence, the “No. of Survivors Day 2” value [3, 4] was 0, the “No. of Survivors Day 3” value [3, 4] was 0 and the “No. of Survivors Day 4” value [3, 4] was 0. For the same sequence, the “No. of Survivors Day 5” value [3, 4] was 0, the “No. of Survivors Day 6” value [3, 4] was 0 and the “No. of Survivors Day 7” value [3, 4] was 0. For the same sequence, the “No. of Survivors Day 8” value [3, 4] was 0, the “No. of Survivors Day 1” value [3, 5] was 0 and the “No. of Survivors Day 2” value [3, 5] was 0. The “No. of Survivors Day 3” value [3, 5] was 0, the “No. of Survivors Day 4” value [3, 5] was 0 and the “No. of Survivors Day 5” value [3, 5] was 0. For the same sequence, the “No. of Survivors Day 6” value [3, 5] was 0, the “No. of Survivors Day 7” value [3, 5] was 0 and the “No. of Survivors Day 8” value [3, 5] was 0. For the same sequence, the “No. of Survivors Day 1” value [3, 6] was 4, the “No. of Survivors Day 2” value [3, 6] was 4 and the “No. of Survivors Day 3” value [3, 6] was 4. The “No. of Survivors Day 4” value [3, 6] was 4, the “No. of Survivors Day 5” value [3, 6] was 4 and the “No. of Survivors Day 6” value [3, 6] was 4. The “No. of Survivors Day 7” value [3, 6] was 4, the “No. of Survivors Day 8” value [3, 6] was 4 and the “No. of Survivors Day 1” value [3, 7] was 4. The “No. of Survivors Day 2” value [3, 7] was 4, the “No. of Survivors Day 3” value [3, 7] was 4 and the “No. of Survivors Day 4” value [3, 7] was 4. For the same sequence, the “No. of Survivors Day 5” value [3, 7] was 4, the “No. of Survivors Day 6” value [3, 7] was 4 and the “No. of Survivors Day 7” value [3, 7] was 4. The “No. of Survivors Day 8” value [3, 7] was 4, the LD50 ([3]; mouse, in vivo, iv, CD-1 mice, estimated from dose response curves) was 12.5 mg/kg and the MTD ([3]; mouse, in vivo, iv, CD-1 mice, read-out: MTD of a single intravenous (i.v.) administration) was 10 mg/kg.
